Data reported in BindingDB's records for doi:10.1021/acs.jmedchem.7b00585 (The Scripps Research Institute, 2017).

molecular target: T1, Estrogen receptor (Homo sapiens, UniProt P03372); experiment: ChEBML_1664056
T1 sequence (P03372 whole entry): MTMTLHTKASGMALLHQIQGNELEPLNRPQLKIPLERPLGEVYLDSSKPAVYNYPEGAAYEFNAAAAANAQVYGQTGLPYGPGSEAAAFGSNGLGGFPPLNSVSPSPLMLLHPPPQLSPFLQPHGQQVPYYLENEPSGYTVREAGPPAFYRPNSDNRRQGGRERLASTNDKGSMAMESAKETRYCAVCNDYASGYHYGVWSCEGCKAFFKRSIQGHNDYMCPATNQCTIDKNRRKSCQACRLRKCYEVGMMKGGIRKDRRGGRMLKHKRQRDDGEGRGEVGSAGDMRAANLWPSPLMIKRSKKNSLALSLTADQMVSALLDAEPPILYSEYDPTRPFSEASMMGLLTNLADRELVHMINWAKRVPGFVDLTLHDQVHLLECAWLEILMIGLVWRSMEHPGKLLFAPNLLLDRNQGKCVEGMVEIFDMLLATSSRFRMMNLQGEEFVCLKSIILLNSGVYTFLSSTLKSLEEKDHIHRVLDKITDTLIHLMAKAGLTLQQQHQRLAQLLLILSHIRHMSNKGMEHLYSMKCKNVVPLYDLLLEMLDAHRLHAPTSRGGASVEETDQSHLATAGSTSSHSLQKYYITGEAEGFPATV
From the text: (§1) Displacement of [3H]estradiol from full-length human ERalpha receptor by scintillation counting

Row | Ki [nM] | Compound
1 | 0.71 | CCCCNC(=O)/C=C/c1ccc(C(=C2C3CC4CC(C3)CC2C4)c2ccc(O)cc2)cc1

molecular target: T1, Estrogen receptor; experiment: as §1

Row | Ki [nM] | Compound
2 | 0.71 | CCCCN(C)C(=O)/C=C/c1ccc(C(=C2C3CC4CC(C3)CC2C4)c2ccc(O)cc2)cc1
3 | 0.43 | COC(=O)/C=C/c1ccc(C(=C2C3CC4CC(C3)CC2C4)c2ccc(O)cc2)cc1
4 | 0.71 | O=C(/C=C/c1ccc(C(=C2C3CC4CC(C3)CC2C4)c2ccc(O)cc2)cc1)OCCCO
5 | 0.37 | NCCCNC(=O)/C=C/c1ccc(C(=C2C3CC4CC(C3)CC2C4)c2ccc(O)cc2)cc1
6 | 0.43 | O=C(/C=C/c1ccc(C(=C2C3CC4CC(C3)CC2C4)c2ccc(O)cc2)cc1)NCCCO
7 | 0.37 | O=C(/C=C/c1ccc(C(=C2C3CC4CC(C3)CC2C4)c2ccc(O)cc2)cc1)OCCO
